# Read-outs that look alike come from different tables or passages of the source. Ends that are not written are not given here.
# How the values were obtained:
# human aldose reductase = target: human aldose reductase; parameters: method as in doi:10.1016/j.fbio.2025.107775; conditions: cited from earlier work
# [1] = ABTS radical scavenging assay
# Method: Concerning the ABTS assay, the ABTS^•+ radical cation was generated. Subsequently, 0.05 mL of the test samples (peptides 1 and 2) at various concentrations was mixed with 4.00 mL of ABTS^•+ solution and kept in the dark at room temperature for two h. The absorbance was determined at 734 nm using a UV–Vis Spectrophotometer (UV-1280 Shimadzu, Germany). Ascorbic acid was used as the positive control, and samples without the ABTS radical solution served as blanks. The results were expressed as the effective concentration (EC50) values.
# [2] = superoxide radical scavenging assay (NBT)
# Method: After 10 min of incubation at 25 °C in the dark, absorbance was recorded at 560 nm. Samples without NBT served as blanks, and ascorbic acid was used as the positive control. The results were expressed as the effective concentration (EC50) values.
# [3] = DPPH radical scavenging assay
# Method: The antioxidant assays of the test compounds were conducted in vitro, following previous studies, using the standard DPPH, ABTS, and superoxide radical scavenging assays. Regarding the DPPH assay, 0.2 mL of the test samples (peptides 1 and 2) at various concentrations was added to 1.2 mL of a 40 μg/mL DPPH solution in methanol. The mixtures were shaken vigorously and incubated in the dark for 20 min, after which the reduction in DPPH absorption was measured at 517 nm. The samples without DPPH and with methanol served as blanks. Ascorbic acid was used as the positive control.
# [4] = cited from earlier work
# [5] = methylglyoxal scavenging (Maillard reaction model, DNPH assay)
# Method: This preliminary assay was conducted to evaluate the methylglyoxal scavenging activity of peptides derived from coconut milk. The Maillard reaction was employed to assess the scavenging potential of peptides against methylglyoxal, using parameters as outlined in previous studies by Risum et al., Zhu et al., and Brings et al., with modifications. The reaction mixture (1 mL) consisted of both peptides at different concentrations, methylglyoxal (0.01 mM), phosphate buffer, and water. It was incubated at two temperatures: room temperature (followed by immediate termination) and 37 °C (for 2 h). Following the incubation time, the reaction was terminated by adding 10 μL of glacial acetic acid. Creatine was used as a positive control. The experiments were performed in triplicate.
# The scavenging potential of the peptides against methylglyoxal was determined using the DNPH assay. In brief, 25 μL of the sample was mixed with 975 μL of water and 1000 μL of DNPH reagent. The reaction mixture was shaken well and incubated at 37 °C for 10 min. Following incubation, the reaction was terminated by adding 1000 μL of 1.5 N NaOH, and the absorbance of the yellowish-orange complex was measured at 525 nm using […]: the MGO blank and the Creatine blank. Scavenging efficiency was calculated using Equations (4) and (5).(4) ACORR=Asample−Ablank (5) MGOscavenging=1−Acorr/AMGO,corr·100 where Asample is the absorbance of the reaction mixture containing methylglyoxal and the test compound (peptide or creatine), Ablank is the absorbance of the reagent blank (without methylglyoxal and without test compound), and AMGO,corr is the blank-corrected absorbance of the methylglyoxal blank (AMGO-Ablank). The creatine control was processed in the same way as the peptide samples.
# human erythrocytes = experiment: hemolytic assay; assay type: cell-based
# Method: The hemolytic potential of the lead peptides was determined following an established erythrocyte hemolysis protocol. In brief, 15 mL of venous blood was drawn from a healthy individual, centrifuged at 3000 rpm for 10 min, and the plasma was discarded. The residual pellet (RBCs) was washed 3 times with PBS (pH 7.4, 0.1 M), and the resultant pellet was resuspended in PBS in a 1:10 ratio. Subsequently, 0.9 mL of the RBC suspension was incubated with 0.1 mL of peptides at various concentrations, a negative control (100 μL PBS + 900 μL RBC suspension), and a positive control (100 μL of 0.5% Triton-X-100 + 900 μL of RBC suspension), and incubated at 37 °C for 24 h. Post incubation, all tubes were centrifuged at 3000 rpm for 10 min. 0.1 mL of the supernatant was then transferred to 96-well plates, and the absorbance of the supernatant was read at 540 nm. […] The corrected values were calculated as Acontrol=Apos−Aneg and Asample=Atest−Aneg where Apos , Aneg and Atest are the absorbance values of the positive control, negative control, and peptide-treated sample (given concentration), respectively.
# aldose reductase = aldose reductase (Homo sapiens, UniProt P15121); experiment: aldose reductase inhibition assay; assay type: biochemical
# Method: The aldose reductase inhibition assay was performed according to the method described by Alharbi et al.. Briefly, a 1 mL reaction mixture comprised 0.87 mL of 100 mM Sodium phosphate buffer (pH 6.2), 0.05 mL of 3 mM NADPH, 0.01 mL of human aldose reductase (recombinant, 0.2 U/mL), with the enzyme’s activity being 0.2 IU/mL, and 0.02 mL of test compounds (designated as peptide 1 and peptide 2) at different concentrations. 0.05 mL of the substrate (DL-glyceraldehyde, five mM) was incubated in the reaction mixture for 3 min at 25 °C. Enzyme activity was determined by measuring the reduction in NADPH absorption at 340 nm over 10 min. […] Aldose reductase inhibitory activity was expressed as the percentage of inhibition.
# [6] = target: T1, porcine pancreatic α-amylase (Sus scrofa, UniProt P00690); experiment: α-amylase inhibition assay; assay type: biochemical
# T1 construct: purchased SRL (Sisco Research Laboratories)
# T1 sequence (P00690 16-511): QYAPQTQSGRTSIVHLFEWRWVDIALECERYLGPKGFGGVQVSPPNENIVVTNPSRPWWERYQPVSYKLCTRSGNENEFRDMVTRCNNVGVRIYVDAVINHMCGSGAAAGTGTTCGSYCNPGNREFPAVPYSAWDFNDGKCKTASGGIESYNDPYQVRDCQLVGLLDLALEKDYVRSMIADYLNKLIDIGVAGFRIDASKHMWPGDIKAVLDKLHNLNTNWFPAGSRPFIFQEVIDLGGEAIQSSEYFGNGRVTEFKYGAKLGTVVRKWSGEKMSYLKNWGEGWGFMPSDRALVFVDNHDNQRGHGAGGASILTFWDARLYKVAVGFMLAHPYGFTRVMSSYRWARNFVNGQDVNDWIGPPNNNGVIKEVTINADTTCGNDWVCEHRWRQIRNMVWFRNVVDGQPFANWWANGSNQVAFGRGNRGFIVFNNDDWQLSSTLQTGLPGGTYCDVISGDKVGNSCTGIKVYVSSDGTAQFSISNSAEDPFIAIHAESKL
# Method: The enzymatic reaction was initiated by adding the starch substrate and allowed to proceed for 15 min. The reaction was then terminated by adding the 3,5-dinitrosalicylic acid (DNSA) reagent, and the mixture was heated to boiling for 5 min. […] IC50 values were obtained from plots of percentage inhibition versus sample concentration.
molecule,measurement,setting,value
O=C(O)Cn1c(=O)n(Cc2ccc(Br)cc2F)c(=O)c2ccc(Cl)cc21 [zenarestat],human aldose reductase IC50,human aldose reductase,59.68 ± 0.47 µg/mL
"O=C1O[C@H]([C@@H](O)CO)C(O)=C1O [Ascorbic acid, reference compound]",ABTS Radical Scavenging Assay EC50,[1],22.74 ± 0.27 µg/mL
same,EC50,[1]; read-out: ABTS Radical Scavenging Assay EC50 (value in bracket) (converted),129 µM
same,Superoxide Radical Scavenging Assay EC50,[2],57.71 ± 0.16 µg/mL
same,EC50,[2]; read-out: Superoxide Radical Scavenging Assay EC50 (value in bracket) (converted),328 µM
same,DPPH Radical Scavenging Assay EC50,[3],28.65 ± 0.17 µg/mL
same,EC50,[3]; read-out: DPPH Radical Scavenging Assay EC50 (value in bracket) (converted),163 µM
GDMNP,superoxide anion radical scavenging EC50,[4],400 ± 8 µg/mL
"CN(CC(=O)O)C(=N)N [Creatine, reference compound]","Methylglyoxal Scavenging EC50 at 37 °C, 2 h","[5]; 37 °C, 2 h",230.05 ± 0.34 µg/mL
same,EC50,"[5]; read-out: Methylglyoxal Scavenging EC50 at 37 °C, 2 h (value in bracket), 37 °C, 2 h",1750 µM
same,EC50,"[5]; room temperature, immediate termination, read-out: Methylglyoxal Scavenging EC50 at RT (value in bracket) (converted)",1750 µM
Triton-X-100 [reference compound],Hemolytic Assay (HC50),"human erythrocytes; human RBC, 37 °C, 24 h",105.25 ± 0.17 µg/mL
same,Hemolytic Assay (HC50) (value in bracket),"human erythrocytes; human RBC, 37 °C, 24 h",162.67 µM
same,Hemolytic Assay (HC50),"human erythrocytes; human RBC, 37 °C, 24 h, listed as Triton X-100",105.25 µg/mL
LLLRW,superoxide anion radical scavenging EC50,[4],430 ± 12 µg/mL
"MQIFVK [Peptide 1, MQIFVK]",IC50,"aldose reductase; mean ± SD, read-out: Aldose Reductase Inhibition IC50 (converted)",29.4 µM
same,IC50,aldose reductase; read-out: Aldose Reductase Inhibition IC50 (value in bracket) (converted),29.4 µM
same,Hemolytic Assay (HC50),human erythrocytes,220.85 ± 0.20 µg/mL
same,Hemolytic Assay (HC50) (value in bracket),"human erythrocytes; red cells of human, 24 h",288.70 µM
same,IC50,"[6]; mean ± SD, read-out: α-Amylase Inhibition IC50 (converted)",115 µM
same,IC50,[6]; read-out: α-Amylase Inhibition IC50 (value in bracket) (converted),115 µM
